Experimental findings from ChEMBL document CHEMBL1201862, “PubChem BioAssay data set” (2004) are described below.

Among the test systems are DMS-114; DLD-1; HOP-18; RXF 631; DMS-273; XF498; KM-20L2; SNB-78; Hs-578T.
Common to all, as to assay: DTP human tumour cell line panel, 48 h

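Interpolation was linear, between the two tested concentrations surrounding the appropriate level; five concentrations were tested over 48 hours in 96-well plates. GI50 is the concentration that inhibits growth by half.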 Calls of active or inactive are those of the source. No stated cut-off is given here; in the data, active = GI50 up to about 1.1 µM and inactive = higher. Where only a bound is given, the exact number is not on record here.

For orientation: GI50 means the concentration giving 50% growth inhibition.

As to `CCNC(=O)O/N=C1\CCC2[C@@H]3CC=C4C[C@@H](OC(=O)NCC)CC[C@]4(C)C3CC[C@]12C` (stereo partly drawn), the GI50 is 0.358 µM (active) in the test with DMS-114; 6.71 µM (inactive) in the test on DLD-1; 1.7 µM (inactive) with HOP-18; 4.26 µM (inactive) in the test with RXF 631; 1.22 µM (inactive) in the test on DMS-273; 0.0792 µM (active) in the test on XF498. Besides, the GI50 in the test on KM-20L2 was 2.44 µM (inactive).
As to `C/C(N)=[N+](/C)[O-]`, the GI50 in the test with DMS-114 was 18.4 µM (inactive); in the test with SNB-78, > 100 µM (inactive); in the test with DLD-1 it was 46.6 µM (inactive); in the test with HOP-18, > 100 µM (inactive); with RXF 631 it was > 100 µM (inactive); with XF498 it was > 100 µM (inactive). The GI50 in the test on KM-20L2 is > 100 µM (inactive).
Take `C[C@]12CCC(=O)C(O)=C1CC[C@@H]1C2CC[C@]2(C)NC(=O)CCC12` (stereo partly drawn): the GI50 with DMS-114, with SNB-78, in the test with HOP-18, with RXF 631, with DMS-273 and with XF498 was > 100 µM (inactive) in each case. The GI50 in the test on KM-20L2 is > 100 µM (inactive).
Regarding `COC(=O)[C@@H]1C[C@H](c2ccc(OC)c(OC)c2)OC1=O.COC(=O)[C@H]1C[C@H](c2ccc(OC)c(OC)c2)OC1=O`, the GI50 in the test on DMS-114, in the test on SNB-78, in the test on DLD-1, in the test on RXF 631, in the test on DMS-273 and with XF498 was > 100 µM (inactive) throughout. In the test on KM-20L2, the GI50 is > 100 µM (inactive).
On to `N=C(N)NCCCS(=O)(=O)Nc1ccc(Nc2c3ccccc3nc3cc([N+](=O)[O-])ccc23)cc1`, for which the GI50 in the test on DMS-114 was 4.72 µM (inactive); in the test with SNB-78 it was 21.4 µM (inactive); in the test with DLD-1, 30.1 µM (inactive); with HOP-18 it was 20.8 µM (inactive); in the test on RXF 631, 25.7 µM (inactive); with DMS-273 it was 4.21 µM (inactive). Further, the results for the GI50 with XF498, with Hs-578T and in the test on KM-20L2 were 1.91 µM (inactive), 12.5 µM (inactive) and 23.9 µM (inactive), respectively.
Turning to `CCc1cccc(C)c1NC(=O)C(=O)Cc1nc2ccccc2s1`, the GI50 with DMS-114, in the test on SNB-78, in the test with DLD-1, in the test with HOP-18, in the test with RXF 631 and in the test with DMS-273 was > 100 µM (inactive) throughout. Besides, in the test on KM-20L2, the GI50 is > 100 µM (inactive).
On to `COc1ccc2oc3c(OC)c(OC)c(OC)cc3c(=O)c2c1`, for which the GI50 in the test on DMS-114 is > 100 µM (inactive); in the test on SNB-78, 69.7 µM (inactive); with DLD-1 it was > 100 µM (inactive); in the test on HOP-18 it was 0.232 µM (active); in the test on RXF 631, > 100 µM (inactive); with DMS-273 it was > 100 µM (inactive). Moreover, the GI50 with XF498 and in the test with KM-20L2 was > 100 µM (inactive) throughout.
Turning to `COc1cccc2c1C(=O)c1c(O)c3c(c(O)c1C2=O)C[C@@](O)(C(=O)CO)C[C@@H]3OC1CC(N)C(OC)C(C)O1` (stereo partly drawn), the GI50 is 0.207 µM (active) in the test on SNB-78; 0.0667 µM (active) in the test with DLD-1; 0.156 µM (active) in the test with HOP-18; 0.0329 µM (active) with RXF 631; 0.0122 µM (active) with DMS-273; < 0.01 µM (active) with XF498. Also, the GI50 with Hs-578T was 0.138 µM (active); in the test with KM-20L2 it was 0.148 µM (active).
Take `CN1C(=O)C(C)(C)NS1(=O)=O`: the GI50 in the test with DMS-114, in the test on SNB-78, in the test on DLD-1, with RXF 631, with DMS-273 and in the test on XF498 was > 100 µM (inactive) each time. Moreover, the GI50 with KM-20L2 was > 100 µM (inactive).
For `c1cncc(C2N3CCCCC3[C@@H]3c4[nH]c5ccccc5c4CCN23)c1` (stereo partly drawn), the GI50 with SNB-78 was 87.1 µM (inactive); in the test on DLD-1 it was > 100 µM (inactive); in the test with HOP-18 it was > 100 µM (inactive); in the test with RXF 631, > 100 µM (inactive); with DMS-273, > 100 µM (inactive); in the test with XF498 it was > 100 µM (inactive). Also, the GI50 in the test on KM-20L2 is > 100 µM (inactive).
Consider `NC(=O)COc1c(Br)cc(Br)cc1Br`, for which the GI50 in the test on DMS-114, in the test with DLD-1, in the test on RXF 631, in the test on DMS-273, with XF498 and with KM-20L2 was > 100 µM (inactive) each time.
In the case of `O=C1CN(C(=O)c2ccccc2)Cc2[nH]c3ccccc3c21`, the GI50 in the test with DMS-114, in the test with SNB-78, in the test on DLD-1, in the test with HOP-18, with RXF 631 and in the test on DMS-273 was > 100 µM (inactive) throughout. The GI50 with XF498 and in the test on KM-20L2 was > 100 µM (inactive) each time.
In the case of `O=C(CC1(O)C(=O)Nc2ccccc21)c1cccc(O)c1` (stereo not drawn), the GI50 was > 100 µM (inactive) in the test on DMS-114; > 100 µM (inactive) in the test with SNB-78; > 100 µM (inactive) with DLD-1; > 100 µM (inactive) in the test on RXF 631; > 100 µM (inactive) in the test with DMS-273; 42.5 µM (inactive) in the test with XF498. The GI50 in the test with KM-20L2 is > 100 µM (inactive).
As for `CCOC(=O)C(C)(c1cn(C)c2ccccc12)c1cn(C)c2ccccc12`, the GI50 in the test on DMS-114 is 79.6 µM (inactive); in the test on SNB-78 it was 70 µM (inactive); in the test with DLD-1 it was > 100 µM (inactive); in the test with RXF 631, 50.8 µM (inactive); in the test on DMS-273, > 100 µM (inactive); in the test with XF498, 32.3 µM (inactive). Besides, the GI50 with KM-20L2 was > 100 µM (inactive).
For `CN(Cc1ccccc1)C(=O)c1ccccc1C(=O)O`, the GI50 in the test with DMS-114, in the test on DLD-1, with RXF 631, with DMS-273, in the test with XF498 and in the test on KM-20L2 was > 100 µM (inactive) throughout.
Regarding `COc1cc(C(=O)N[C@H]2CCc3cc(OC)c(OC)c(OC)c3-c3ccc(SC)c(=O)cc32)cc(OC)c1OC`, the GI50 in the test on DMS-114 is 0.00775 µM (active); in the test with SNB-78, 0.0025 µM (active); in the test on DLD-1, 0.00731 µM (active); in the test with RXF 631, 0.0338 µM (active); with DMS-273, 0.00298 µM (active); with XF498, 0.024 µM (active). Further, in the test with KM-20L2, the GI50 is 0.00475 µM (active).
Turning to `CCCOc1ccc(/C=C\c2cc(OC)c(OC)c(OC)c2)cc1`, the GI50 in the test with DMS-114 was 34.4 µM (inactive); with SNB-78, > 100 µM (inactive); in the test with DLD-1, 87.7 µM (inactive); with HOP-18, > 100 µM (inactive); with RXF 631, 37.1 µM (inactive); in the test on DMS-273, 36.3 µM (inactive). The GI50 was 62.2 µM (inactive) in the test on XF498 and 33 µM (inactive) with KM-20L2.
